Common to all, as to assay type: biochemical
One experiment has as its target T1, KDM5C (JARID1C) (Homo sapiens, UniProt P41229).
T1 construct: 2-1560; purchased BPS; host or cells: Bac (baculovirus system)
Description: Histone lysine demethylase AlphaLISA assay, KDM5C. The conditions noted are these: read-out: KDM5C HDME Inhibition IC50. How it is done:
(§1) Assays are performed analogously to the protocol described by PerkinElmer (Roy et al. PerkinElmer Technical Note: AlphaLISA #12, April 2011)
(§2) Enzymes are dissolved in enzyme buffer and incubated for 10 min before being added to 3% DMSO solutions of compounds in enzyme buffer. Incubated for another 10 minutes, before substrate solution is added and the reaction mixture is incubated at room temperature. 10 μL acceptor beads, suspended in Epigenetic Buffer (Perkin Elmer AL008) from stock, are added and the suspension is incubated in the dark at room temperature, before a suspension of streptavidin donor beads (Perkin Elmer 6760002) in Epigenetic Buffer is added. After incubation at room temperature in the dark the plates are read. […]
H3K4M3B: H-ART(Kme3)QTARKSTGGKAPRKQLA-NH-Biotin (Caslo, Denmark) […]
(§3) Substrate Solution: Substrate, 25 μM L-Asc, and 10 μM α-KG in Buffer A.
In general terms: Alpha assays give light when donor and acceptor beads are brought close together.

Another experiment has as its target T2, KDM3A (JMJD1A) (Homo sapiens, UniProt Q9Y4C1).
T2 construct: 2-end; purchased BPS Bioscience, US; host or cells: Bac (baculovirus system)
T2 sequence (Q9Y4C1 2-1321 limits assumed): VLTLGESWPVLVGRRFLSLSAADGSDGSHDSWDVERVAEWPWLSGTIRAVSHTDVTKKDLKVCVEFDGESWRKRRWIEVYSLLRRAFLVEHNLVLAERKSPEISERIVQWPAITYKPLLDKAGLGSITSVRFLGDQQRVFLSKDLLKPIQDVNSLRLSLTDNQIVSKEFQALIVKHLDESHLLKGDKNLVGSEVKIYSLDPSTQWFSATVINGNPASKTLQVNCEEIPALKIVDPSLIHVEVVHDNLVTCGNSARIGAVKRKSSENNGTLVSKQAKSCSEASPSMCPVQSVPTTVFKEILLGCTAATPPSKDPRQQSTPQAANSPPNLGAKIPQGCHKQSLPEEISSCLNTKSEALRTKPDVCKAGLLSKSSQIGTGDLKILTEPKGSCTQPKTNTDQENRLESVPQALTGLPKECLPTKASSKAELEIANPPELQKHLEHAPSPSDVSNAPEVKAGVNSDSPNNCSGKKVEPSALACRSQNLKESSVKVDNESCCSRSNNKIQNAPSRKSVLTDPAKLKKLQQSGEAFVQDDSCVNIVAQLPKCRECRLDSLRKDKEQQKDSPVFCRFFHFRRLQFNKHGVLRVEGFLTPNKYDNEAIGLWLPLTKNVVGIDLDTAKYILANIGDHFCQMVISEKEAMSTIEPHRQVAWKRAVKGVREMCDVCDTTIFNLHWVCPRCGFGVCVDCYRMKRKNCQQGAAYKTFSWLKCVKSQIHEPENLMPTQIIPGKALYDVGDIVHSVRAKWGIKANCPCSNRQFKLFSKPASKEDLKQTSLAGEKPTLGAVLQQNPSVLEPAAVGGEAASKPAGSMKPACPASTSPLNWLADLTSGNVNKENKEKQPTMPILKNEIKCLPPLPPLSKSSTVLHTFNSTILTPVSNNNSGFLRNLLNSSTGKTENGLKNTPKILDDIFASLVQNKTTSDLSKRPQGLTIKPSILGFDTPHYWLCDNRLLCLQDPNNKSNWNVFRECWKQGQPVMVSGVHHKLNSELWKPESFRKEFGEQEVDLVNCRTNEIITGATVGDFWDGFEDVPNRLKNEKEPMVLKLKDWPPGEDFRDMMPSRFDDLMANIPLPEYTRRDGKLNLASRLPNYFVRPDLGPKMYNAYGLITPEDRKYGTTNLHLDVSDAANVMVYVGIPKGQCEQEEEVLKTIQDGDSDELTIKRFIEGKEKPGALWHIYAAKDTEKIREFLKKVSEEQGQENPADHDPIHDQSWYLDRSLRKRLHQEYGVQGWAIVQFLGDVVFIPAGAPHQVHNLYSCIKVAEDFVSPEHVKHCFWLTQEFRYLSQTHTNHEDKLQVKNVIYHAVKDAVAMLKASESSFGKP
Description: Histone lysine demethylase AlphaLISA assay, KDM3A. As to conditions: read-out: KDM3 A HDME Inhibition IC50. As to the method: as §1, §2
BK9M2: Biotin-ARTKQTAR(KMe2)STGGKAPRKQ-NH2 (AnaSpec 64359) […]
as §3

The target of a further experiment is T3, KDM7 (PHF8) (Homo sapiens, UniProt Q9UPP1).
T3 construct: KDM7 (PHF8); BRIC; 1-1322; Bac
T3 sequence (Q9UPP1 37-440 limits assumed): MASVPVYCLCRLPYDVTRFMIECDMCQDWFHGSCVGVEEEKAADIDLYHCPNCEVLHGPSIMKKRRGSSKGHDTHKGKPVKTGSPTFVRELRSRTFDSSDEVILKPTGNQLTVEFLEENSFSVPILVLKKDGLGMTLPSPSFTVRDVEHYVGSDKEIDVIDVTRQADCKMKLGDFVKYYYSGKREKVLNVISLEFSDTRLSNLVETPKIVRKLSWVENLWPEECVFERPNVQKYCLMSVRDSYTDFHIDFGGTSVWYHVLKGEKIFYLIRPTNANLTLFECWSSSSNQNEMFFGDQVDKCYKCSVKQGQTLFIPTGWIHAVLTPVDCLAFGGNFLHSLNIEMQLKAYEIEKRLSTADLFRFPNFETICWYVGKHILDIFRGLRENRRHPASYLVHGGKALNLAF
Nature of the experiment: Histone lysine demethylase AlphaLISA assay, KDM7. The conditions noted are these: read-out: PHF8 HDME Inhibition IC50. How it is done: as §1, §2
BK9M2: Biotin-ARTKQTAR(KMe2)STGGKAPRKQ-NH2 (AnaSpec 64359)
BK9M1: Biotin-ARTKQTAR(KMe1)STGGKAPRKQ-NH2 (AnaSpec 64358) […]
as §3

Another experiment has as its target T4, KDM6B (JMJD3) (Homo sapiens, UniProt O15054).
T4 construct: 1043-end; purchased BPS; host or cells: Bac (baculovirus system)
Nature of the experiment: Histone lysine demethylase AlphaLISA assay, KDM6B. The conditions noted are these: read-out: KDM6B HDME Inhibition IC50. How it is done: as §1, §2
BK27M3: Biotin-ATKAAR(Kme3)SAPATGGVKKPHRY-NH2? (Caslo, Denmark) […]
as §3

T1 sequence (P41229 2-1560): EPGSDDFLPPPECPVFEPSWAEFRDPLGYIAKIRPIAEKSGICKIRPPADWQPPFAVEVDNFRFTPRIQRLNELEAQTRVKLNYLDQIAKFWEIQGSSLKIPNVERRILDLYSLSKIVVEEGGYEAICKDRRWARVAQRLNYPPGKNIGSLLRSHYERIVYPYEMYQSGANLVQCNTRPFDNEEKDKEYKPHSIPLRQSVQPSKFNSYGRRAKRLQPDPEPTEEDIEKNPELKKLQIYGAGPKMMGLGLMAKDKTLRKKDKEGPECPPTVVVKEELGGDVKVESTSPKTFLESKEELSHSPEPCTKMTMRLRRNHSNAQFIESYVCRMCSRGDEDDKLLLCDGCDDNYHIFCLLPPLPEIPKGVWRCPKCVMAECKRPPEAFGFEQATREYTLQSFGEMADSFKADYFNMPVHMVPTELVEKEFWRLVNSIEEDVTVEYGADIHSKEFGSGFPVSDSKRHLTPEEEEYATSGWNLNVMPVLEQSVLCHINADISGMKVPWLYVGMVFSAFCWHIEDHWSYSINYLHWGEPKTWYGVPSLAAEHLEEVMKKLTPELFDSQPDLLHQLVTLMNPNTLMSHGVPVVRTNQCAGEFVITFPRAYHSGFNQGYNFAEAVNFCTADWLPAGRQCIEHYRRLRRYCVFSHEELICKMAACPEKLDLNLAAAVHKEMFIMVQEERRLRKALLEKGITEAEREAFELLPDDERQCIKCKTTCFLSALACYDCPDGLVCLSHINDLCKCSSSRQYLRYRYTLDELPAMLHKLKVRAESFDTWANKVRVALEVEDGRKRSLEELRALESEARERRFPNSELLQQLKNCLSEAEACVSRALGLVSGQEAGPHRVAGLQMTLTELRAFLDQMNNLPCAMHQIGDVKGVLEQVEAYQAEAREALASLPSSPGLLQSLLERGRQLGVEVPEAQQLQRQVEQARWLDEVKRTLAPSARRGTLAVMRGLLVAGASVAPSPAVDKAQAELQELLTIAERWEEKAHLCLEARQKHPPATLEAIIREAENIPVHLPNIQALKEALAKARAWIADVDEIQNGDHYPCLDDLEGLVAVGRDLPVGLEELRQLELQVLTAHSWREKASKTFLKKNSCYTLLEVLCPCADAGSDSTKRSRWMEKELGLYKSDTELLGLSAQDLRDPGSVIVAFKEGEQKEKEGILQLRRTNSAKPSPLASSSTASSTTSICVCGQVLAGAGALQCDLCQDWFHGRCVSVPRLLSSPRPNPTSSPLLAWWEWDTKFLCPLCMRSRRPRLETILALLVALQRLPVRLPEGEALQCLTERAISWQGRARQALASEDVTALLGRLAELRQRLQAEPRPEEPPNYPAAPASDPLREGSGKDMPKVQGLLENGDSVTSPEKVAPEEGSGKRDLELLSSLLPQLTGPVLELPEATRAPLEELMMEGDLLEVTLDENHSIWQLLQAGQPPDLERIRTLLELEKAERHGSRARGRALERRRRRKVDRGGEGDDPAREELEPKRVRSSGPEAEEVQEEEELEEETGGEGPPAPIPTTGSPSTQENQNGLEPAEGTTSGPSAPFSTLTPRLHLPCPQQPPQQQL
T4 sequence (O15054 1043-1682 isoform O15054-1 limits assumed): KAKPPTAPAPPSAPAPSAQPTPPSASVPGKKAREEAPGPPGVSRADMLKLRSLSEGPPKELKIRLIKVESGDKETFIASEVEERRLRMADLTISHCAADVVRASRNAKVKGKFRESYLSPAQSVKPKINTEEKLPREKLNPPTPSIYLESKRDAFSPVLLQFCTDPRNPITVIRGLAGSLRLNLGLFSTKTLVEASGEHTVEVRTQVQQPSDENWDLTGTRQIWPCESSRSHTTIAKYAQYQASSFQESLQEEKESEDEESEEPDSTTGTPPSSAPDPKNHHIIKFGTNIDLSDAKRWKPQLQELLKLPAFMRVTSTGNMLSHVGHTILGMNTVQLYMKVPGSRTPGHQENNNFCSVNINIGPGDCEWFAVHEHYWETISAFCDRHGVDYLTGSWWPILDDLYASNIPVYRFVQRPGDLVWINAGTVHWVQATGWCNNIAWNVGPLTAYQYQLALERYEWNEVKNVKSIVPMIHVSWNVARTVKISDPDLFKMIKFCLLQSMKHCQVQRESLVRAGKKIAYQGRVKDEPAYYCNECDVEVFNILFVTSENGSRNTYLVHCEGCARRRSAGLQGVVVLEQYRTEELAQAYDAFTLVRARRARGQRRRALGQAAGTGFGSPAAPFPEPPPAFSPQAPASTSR

Usually IC50 stands for the concentration that inhibits the measured activity by half. On to `CCN(CC)CCCCN(Cc1cc(CNC(=O)C(F)(F)F)ccn1)C(=O)C(F)(F)F` [Compound 6, N-[4-(diethylamino)butyl]-- 2,2,2-trifluoro-N-({4-[(trifluoroacetamido)-methyl]pyridin-2-yl}methyl)acetamide], for which the IC50 is greater than 2.5 µM at KDM5C (JARID1C), greater than 2.5 µM on KDM3A (JMJD1A), 0.25 to 2.5 µM at KDM7 (PHF8) and greater than 2.5 µM at KDM6B (JMJD3).
For the molecule `CN(C)CCCCCNCc1cc(CN)ccn1` [Compound 8, [2-({[5-(dimethylamino)pentyl]-amino}methyl)pyridin-4-yl]methanamine], the IC50 is less than 0.25 µM at KDM5C (JARID1C), greater than 2.5 µM at KDM3A (JMJD1A), greater than 2.5 µM on KDM7 (PHF8) and greater than 2.5 µM on KDM6B (JMJD3).
For `COc1ccccc1CN1CCC(NC(=O)CNCc2cc(CN)ccn2)CC1` [Compound 9, 2-({[4-(aminomethyl)pyridin-2-yl]methyl}amino)-N-{1-[(2-methoxyphenyl)methyl]-piperidin-4-yl}acetamide], the IC50 on KDM5C (JARID1C) is less than 0.25 µM; on KDM3A (JMJD1A), greater than 2.5 µM; at KDM7 (PHF8), greater than 2.5 µM; on KDM6B (JMJD3), greater than 2.5 µM.
As for `CCCNCc1cc(CNC2CC2)ccn1` [Compound 12, N-({2-[(propylamino)methyl]-pyridin-4-yl}methyl)-cyclopropanamine], the IC50 at KDM5C (JARID1C), at KDM3A (JMJD1A), at KDM7 (PHF8) and on KDM6B (JMJD3) was greater than 2.5 µM each time.
For the molecule `CN(C)C(=O)CNCc1cc(CNCCF)ccn1` [Compound 14, 2-{[(4-{[(2-fluoroethyl)amino]-methyl}pyridin-2-yl)methyl]amino}-N,N-dimethylacetamide], the half-inhibitory concentration (IC50) is 0.25 to 2.5 µM at KDM5C (JARID1C), greater than 2.5 µM on KDM3A (JMJD1A), greater than 2.5 µM on KDM7 (PHF8) and greater than 2.5 µM at KDM6B (JMJD3).
In the case of `CN(C)CCNCc1ccnc(CNCC(=O)N(C)C)c1` [Compound 15, 2-({[4-({[2-(dimethylamino)ethyl]-amino}methyl)pyridin-2-yl]methyl}amino)-N,N-dimethylacetamide], the IC50 was 0.25 to 2.5 µM on KDM5C (JARID1C), greater than 2.5 µM on KDM3A (JMJD1A), greater than 2.5 µM on KDM7 (PHF8) and greater than 2.5 µM on KDM6B (JMJD3).
With `c1ccc(CN2CCC[C@H]2CNCc2cc(CNCC3CC3)ccn2)cc1` [Compound 16, {[(2S)-1-benzylpyrrolidin-2-yl]methyl}[(4-{[(cyclopropylmethyl)-amino]methyl}pyridin-2-yl)methyl]amine], the IC50 at KDM5C (JARID1C) is 0.25 to 2.5 µM; at KDM3A (JMJD1A) it was greater than 2.5 µM; at KDM7 (PHF8), 0.25 to 2.5 µM; at KDM6B (JMJD3) it was greater than 2.5 µM.
For the molecule `CNCc1ccnc(CNCCCN(C)Cc2ccccc2)c1` [Compound 17, benzyl(methyl){3-[({4-[(methylamino)methyl]-pyridin-2-yl)methyl)-amino]propyl}-amine], the IC50 at KDM5C (JARID1C) is less than 0.25 µM; at KDM3A (JMJD1A) it was greater than 2.5 µM; at KDM7 (PHF8), greater than 2.5 µM; at KDM6B (JMJD3) it was greater than 2.5 µM.
Turning to `CN(C)CCNCc1cc(CNC(C#N)C2CC2)ccn1` (stereo not drawn) [Compound 21, 2-cyclopropyl-2-({[2-({[2-(dimethylamino)ethyl]-amino}methyl)pyridin-4-yl]methyl}amino)-acetonitrile], the IC50 on KDM5C (JARID1C), at KDM3A (JMJD1A), at KDM7 (PHF8) and at KDM6B (JMJD3) was greater than 2.5 µM throughout.
Turning to `CC(C#N)NCc1ccnc(CNCCCN(C)C)c1` (stereo not drawn) [Compound 22, 2-({[2-({[3-(dimethylamino)propyl]-amino}methyl)pyridin-4-yl]methyl}amino)-propanenitrile], the IC50 at KDM5C (JARID1C) is less than 0.25 µM; at KDM3A (JMJD1A), greater than 2.5 µM; on KDM7 (PHF8), greater than 2.5 µM; on KDM6B (JMJD3) it was greater than 2.5 µM.
Take `N#CCNCc1ccnc(CNCCCCN(Cc2ccccc2)C2CC2)c1` [Compound 23, 2-[({2-[({4-[benzyl(cyclopropyl)-amino]butyl}amino)-methyl]pyridin-4-yl}methyl)amino]-acetonitrile]: the IC50 at KDM5C (JARID1C) is less than 0.25 µM; on KDM3A (JMJD1A), greater than 2.5 µM; at KDM7 (PHF8), greater than 2.5 µM; on KDM6B (JMJD3) it was greater than 2.5 µM.
With `CNC(C#N)c1ccnc(CNCCCN(C)C)c1` (stereo not drawn) [Compound 24, 2-[2-({[3-(dimethylamino)propyl]-amino}methyl)pyridin-4-yl]-2-(methylamino)-acetonitrile], the IC50 is less than 0.25 µM on KDM5C (JARID1C), greater than 2.5 µM at KDM3A (JMJD1A), greater than 2.5 µM at KDM7 (PHF8) and greater than 2.5 µM at KDM6B (JMJD3).
As for `CCN(CCN(C)C)C(=O)CNCc1cc(CNC(=O)C(F)(F)F)ccn1` [Compound 25, N-[(2-{[({[2-(dimethylamino)ethyl]-(ethyl)carbamoyl}-methyl)amino]methyl}-pyrtdin-4-yl)methyl]-2,2,2-trifluoroacetamide], the IC50 was 0.25 to 2.5 µM at KDM5C (JARID1C), greater than 2.5 µM on KDM3A (JMJD1A), greater than 2.5 µM on KDM7 (PHF8) and greater than 2.5 µM at KDM6B (JMJD3).
`CN(C)C(=O)CNCc1cc(/C=N/CCCc2ccccc2)ccn1` [Compound 34, N,N-dimethyl-2-[({4-[[(3-phenylpropyl)imino]-methyl]pyridin-2-yl}methyl)amino]-acetamide]: the IC50 at KDM5C (JARID1C) is less than 0.25 µM; at KDM3A (JMJD1A), greater than 2.5 µM; at KDM7 (PHF8), greater than 2.5 µM; on KDM6B (JMJD3) it was greater than 2.5 µM.
Take `CC1CC1/N=C/c1ccnc(CNCC(=O)N(C)C)c1` (stereo not drawn) [Compound 35, N,N-dimethyl-2-[({4-[N-(2-methylcyclopropyl)-carboximidoyl]pyridin-2-yl}methyl)amino]-acetamide]: the IC50 at KDM5C (JARID1C) was less than 0.25 µM; on KDM3A (JMJD1A), greater than 2.5 µM; at KDM7 (PHF8), less than 0.25 µM; at KDM6B (JMJD3) it was greater than 2.5 µM.
For `CN(C)C(=O)CNCc1cc(/C=N/CCC2CCCCC2)ccn1` [Compound 36, 2-[({4-[[(2-cyclohexylethyl)imino]-methyl]pyridin-2-yl}methyl)amino]-N,N-dimethylacetamide], the IC50 at KDM5C (JARID1C) is less than 0.25 µM; on KDM3A (JMJD1A), greater than 2.5 µM; at KDM7 (PHF8) it was 0.25 to 2.5 µM; on KDM6B (JMJD3), greater than 2.5 µM.
Take `CN(C)CCC/N=C/c1ccnc(CNCCCN(C)C)c1` [Compound 37, [3-(dimethylamino)propyl]-({4-[{[3-(dimethylamino)propyl]-imino}methyl]pyridin-2-yl}methyl)amine]: the concentration for half-maximal inhibition (IC50) was less than 0.25 µM on KDM5C (JARID1C), greater than 2.5 µM at KDM3A (JMJD1A), greater than 2.5 µM on KDM7 (PHF8) and greater than 2.5 µM at KDM6B (JMJD3).
Regarding `CN(C)CCCNCc1cc(/C=N/CCN(C)C)ccn1` [Compound 38, ({4-[{[2-(dimethylamino)ethyl]-imino}methyl]pyridin-2-yl}methyl)[3-(dimethylamino)-propyl]amine], the IC50 at KDM5C (JARID1C) is less than 0.25 µM; at KDM3A (JMJD1A), greater than 2.5 µM; on KDM7 (PHF8), greater than 2.5 µM; on KDM6B (JMJD3) it was greater than 2.5 µM.

Values taken from patent US9650339B2, “Inhibitors of histone demethylases” (Gilead Sciences, Inc., priority 2013, dated 2017).
